Assay results as given in US9580433B2 (Janssen Pharmaceutica NV, priority 2013, dated 2017).
Read-outs that look alike come from different tables or passages of the source.

What was measured:
BACE1 = target: T1, BACE1 (Homo sapiens, UniProt P56817); assay: BACE1 biochemical FRET based assay
T1 construct: recombinant BACE1 protein in a final concentration of 0.04 g/ml

[1] = system: Abeta 1-42 produced and secreted by SKNBE2 cells (BACE1); assay: BACE1 cellular αLisa assay in SKNBE2 cells, Abeta 1-42; assay type: cell-based, human; conditions: SKNBE2 cells expressing hAPP695, 18 hours incubation; for IC50: Homo sapiens, SKNBE2, 18 h, read-out: Cellular αLisa assay in SKNBE2 cells Abeta 42 pIC50 (converted)
Method: (§1) BACE1 Cellular αLisa Assay in SKNBE2 Cells
(§2) In two αLisa assays the levels of Abeta total and Abeta 1-42 produced and secreted into the medium of human neuroblastoma SKNBE2 cells are quantified. The assay is based on the human neuroblastoma SKNBE2 expressing the wild type Amyloid Precursor Protein (hAPP695). The compounds are diluted and added to these cells, incubated for 18 hours and then measurements of Abeta 1-42 and Abeta total are taken. Abeta total and Abeta 1-42 are measured by sandwich αLisa. αLisa is a sandwich assay using biotinylated antibody AbN/25 attached to streptavidin coated beads and antibody Ab4G8 or cAb42/26 conjugated acceptor beads for the detection of Abeta total and Abeta 1-42 respectively. In the presence of Abeta total or Abeta 1-42, the beads come into close proximity. The excitation of the donor beads provokes the release of singlet oxygen molecules that trigger a cascade of energy transfer in the acceptor beads, resulting in light emission. Light emission is measured after 1 hour incubation (excitation at […] and emission at 615 nm).
(§3) A best-fit curve is fitted by a minimum sum of squares method to the plot of % Controlmin versus compound concentration.

[2] = system: Abeta total produced and secreted by SKNBE2 cells (BACE1); assay: BACE1 cellular αLisa assay in SKNBE2 cells, Abeta total; assay type: cell-based, human; conditions: SKNBE2 cells expressing hAPP695, 18 hours incubation; for IC50: Homo sapiens, SKNBE2, 18 h, read-out: Cellular αLisa assay in SKNBE2 cells Abetatotal pIC50 (converted)
Method: as §1, §2, §3

BACE2 = target: T2, BACE2 (Homo sapiens, UniProt Q9Y5Z0); assay: BACE2 biochemical FRET based assay; conditions: recombinant BACE2, 450 min, pH 5.0; read-out: BACE2 Biochemical FRET based assay pIC50 (converted)
T2 construct: recombinant BACE2 protein in a final concentration of 0.4 μg/ml
T2 sequence (Q9Y5Z0 63-518): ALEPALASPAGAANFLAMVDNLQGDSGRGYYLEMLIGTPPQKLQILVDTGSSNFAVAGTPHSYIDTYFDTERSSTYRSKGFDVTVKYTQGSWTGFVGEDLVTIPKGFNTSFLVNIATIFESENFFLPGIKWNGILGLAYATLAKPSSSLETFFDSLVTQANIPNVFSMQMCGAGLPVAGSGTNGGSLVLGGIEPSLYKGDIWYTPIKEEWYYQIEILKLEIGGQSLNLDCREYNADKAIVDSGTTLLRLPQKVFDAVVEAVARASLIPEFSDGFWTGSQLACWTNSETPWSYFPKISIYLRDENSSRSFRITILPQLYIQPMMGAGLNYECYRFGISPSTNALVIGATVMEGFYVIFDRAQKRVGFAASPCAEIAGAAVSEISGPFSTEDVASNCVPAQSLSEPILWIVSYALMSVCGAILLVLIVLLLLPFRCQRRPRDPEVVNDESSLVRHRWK

[3] = recombinant BACE1, 450 min, pH 5.0, read-out: BACE1 Biochemical FRET based assay pIC50 (converted)
[4] = Table 10, comparison with WO2012/085038 compounds, read-out: IC50 (nM), BACE1 biochemical FRET based assay

T1 sequence (P56817 46-501): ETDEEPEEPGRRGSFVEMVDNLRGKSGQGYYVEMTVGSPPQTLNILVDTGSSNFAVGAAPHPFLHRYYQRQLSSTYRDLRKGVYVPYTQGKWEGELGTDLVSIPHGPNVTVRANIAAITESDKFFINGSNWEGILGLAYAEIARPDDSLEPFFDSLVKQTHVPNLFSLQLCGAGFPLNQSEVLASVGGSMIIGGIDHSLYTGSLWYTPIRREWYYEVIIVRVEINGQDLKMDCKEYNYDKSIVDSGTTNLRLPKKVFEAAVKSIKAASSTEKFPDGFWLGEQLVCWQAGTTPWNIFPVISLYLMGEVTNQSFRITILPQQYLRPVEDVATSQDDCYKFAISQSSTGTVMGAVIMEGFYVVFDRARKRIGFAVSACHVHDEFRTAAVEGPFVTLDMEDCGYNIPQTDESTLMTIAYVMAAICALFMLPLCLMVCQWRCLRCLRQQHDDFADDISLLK

IC50 (BACE1; [3]) [nM] | IC50 [1] [nM] | IC50 [2] [nM] | IC50 (BACE2) [nM] | Cellular αLisa assay in SKNBE2 cells Abeta 42 pIC50 [1] | Cellular αLisa assay in SKNBE2 cells Abetatotal pIC50 [2] | IC50 (BACE1; [4]) [nM] | Structure (SMILES)
8.32 | 3.63 | 3.63 | 93.3 | – | – | – | COc1cnc(C(=O)Nc2ccc(F)c(C3(CF)Cn4cncc4C(N)=N3)c2)cn1 (racemic) [Compound 13, (rac)-N-{3-[8-Amino-6-(fluoromethyl)-5,6-dihydroimidazo[1,5-a]pyrazin-6-yl]-4-fluorophenyl}-5-methoxypyrazine-2-carboxamide]
933 | – | – | 5370 | 6.07 | 6.06 | – | COc1cnc(C(=O)Nc2ccc(F)c(C3(CF)Cn4cncc4C(N)=N3)c2)cn1 (single isomer, unassigned) [Compound 14, N-{3-[8-amino-6-(fluoromethyl)-5,6-dihydroimidazo[1,5-a]pyrazin-6-yl]-4-fluorophenyl}-5-methoxypyrazine-2-carboxamide (R or S)]
2.24 | – | – | 37.2 | 8.74 | 8.74 | – | COc1cnc(C(=O)Nc2ccc(F)c(C3(CF)Cn4cncc4C(N)=N3)c2)cn1 (single isomer, unassigned) [Compound 15, N-{3-[8-amino-6-(fluoromethyl)-5,6-dihydroimidazo[1,5-a]pyrazin-6-yl]-4-fluorophenyl}-5-methoxypyrazine-2-carboxamide (S or R)]
– | – | – | – | – | – | 18.6 | C[C@@]1(c2cc(NC(=O)c3ccc(Cl)cn3)ccc2F)Cn2c(C(F)F)cnc2C(N)=N1 [74 (WO2012/085038), reference compound]
– | – | – | – | – | – | 13.8 | C[C@@]1(c2cc(NC(=O)c3ccc(C#N)cn3)ccc2F)Cn2c(C(F)F)cnc2C(N)=N1 [75 (WO2012/085038), reference compound]
– | – | – | – | – | – | 83.2 | COc1cnc(C(=O)Nc2ccc(F)c([C@]3(C)Cn4c(C(F)F)cnc4C(N)=N3)c2)cn1 [76 (WO2012/085038), reference compound]
4.9 | 3.31 | 2.75 | 55 | – | – | – | COc1cnc(C(=O)Nc2ccc(F)c([C@]3(C)Cn4cncc4C(N)=N3)c2)cn1 [Compound 1, N-{3-[(6R)-8-Amino-6-methyl-5,6-dihydroimidazo[1,5-a]pyrazin-6-yl]-4-fluorophenyl}-5-methoxypyrazine-2-carboxamide]
708 | 245 | 229 | 7240 | – | – | – | C[C@@]1(c2cc(-c3cncnc3)ccc2F)Cn2cncc2C(N)=N1 [Compound 2, (6R)-6-(2-Fluoro-5-pyrimidin-5-ylphenyl)-6-methyl-5,6-dihydroimidazo[1,5-a]pyrazin-8-amine]
3.16 | 2.95 | 2.34 | 4.07 | – | – | 3.16 | C[C@@]1(c2cc(NC(=O)c3ccc(Cl)cn3)ccc2F)Cn2cncc2C(N)=N1 [Compound 3, N-{3-[(6R)-8-amino-6-methyl-5,6-dihydroimidazo[1,5-a]pyrazin-6-yl]-4-fluorophenyl}-5-chloropyridine-2-carboxamide]
> 10000 | > 10000 | > 10000 | – | – | – | – | Cc1ncn2c1C(N)=N[C@](C)(c1cc(-c3cncnc3)ccc1F)C2 [Compound 6, (6R)-6-(2-Fluoro-5-pyrimidin-5-ylphenyl)-1,6-dimethyl-5,6-dihydroimidazo[1,5-a]pyrazin-8-amine]
3.98 | 6.17 | 5.5 | 8.13 | – | – | – | Cc1cc(C#N)cnc1C(=O)Nc1ccc(F)c([C@]2(C)Cn3cncc3C(N)=N2)c1 [Compound 7, N-{3-[(6R)-8-amino-6-methyl-5H-imidazo[1,5-a]pyrazin-6-yl]-4-fluoro-phenyl}-5-cyano-3-methyl-pyridine-2-carboxamide]
22.4 | 19.1 | 17.4 | 12.6 | – | – | – | C[C@@]1(c2cc(NC(=O)c3ccc(F)cn3)ccc2F)Cn2cncc2C(N)=N1 [Compound 8, N-{3-[(6R)-8-amino-6-methyl-5,6-dihydroimidazo[1,5-a]pyrazin-6-yl]-4-fluorophenyl}-5-fluoropyridine-2-carboxamide]
1.45 | 2 | 2.24 | 2.14 | – | – | – | C[C@@]1(c2cc(NC(=O)c3ccc(C#N)cn3)ccc2F)Cn2c(cnc2C#N)C(N)=N1 [Compound 9, N-{3-[(6R)-8-Amino-3-cyano-6-methyl-5,6-dihydroimidazo[1,5-a]pyrazin-6-yl]-4-fluorophenyl}-5-cyanopyridine-2-carboxamide]
3.47 | 0.955 | 1.07 | 15.8 | – | – | 3.47 | C[C@@]1(c2cc(NC(=O)c3ccc(C#N)cn3)ccc2F)Cn2c(cnc2C(F)F)C(N)=N1 [Compound 10, N-{3-[(6R)-8-amino-3-(difluoromethyl)-6-methyl-5,6-dihydroimidazo[1,5-a]pyrazin-6-yl]-4-fluorophenyl}-5-cyanopyridine-2-carboxamide]
3.16 | 0.575 | 0.631 | 2.75 | – | – | 3.16 | C[C@@]1(c2cc(NC(=O)c3ccc(Cl)cn3)ccc2F)Cn2c(cnc2C(F)F)C(N)=N1 [Compound 11, N-{3-[(6R)-8-amino-3-(difluoromethyl)-6-methyl-5,6-dihydroimidazo[1,5-a]pyrazin-6-yl]-4-fluoropheny}-5-chloropyridine-2-carboxamide]
3.8 | 0.813 | 0.851 | 24 | – | – | 3.8 | COc1cnc(C(=O)Nc2ccc(F)c([C@]3(C)Cn4c(cnc4C(F)F)C(N)=N3)c2)cn1 [Compound 12, N-{3-[(6R)-8-amino-3-(difluoromethyl)-6-methyl-5,6-dihydroimidazo[1,5-a]pyrazin-6-yl]-4-fluoropheny}-5-methoxypyrazine-2-carboxamide]
1.38 | 1.91 | 2.14 | 9.55 | – | – | – | C[C@@]1(c2cc(NC(=O)c3ccc(C#N)cn3)ccc2F)Cn2c(cnc2CC2CC2)C(N)=N1 [Compound 16, N-{3-[(6R)-8-Amino-3-(cyclopropylmethyl)-6-methyl-5,6-dihydroimidazo[1,5-a]pyrazin-6-yl]-4-fluorophenyl}-5-cyanopyridine-2-carboxamide]
1.86 | 4.79 | 5.25 | – | – | – | – | CC(=O)NCc1ncc2n1C[C@@](C)(c1cc(NC(=O)c3ccc(C#N)cn3)ccc1F)N=C2N [Compound 17, N-(3-{(6R)-3-[(Acetylamino)methyl]-8-amino-6-methyl-5,6-dihydroimidazo[1,5-a]pyrazin-6-yl}-4-fluorophenyl)-5-cyanopyridine-2-carboxamide]
